Source: patent US20230416224A1, “PROCESSES FOR PREPARING ARIMOCLOMOL CITRATE AND INTERMEDIATES THEREOF” (ZEVRA DENMARK A/S, priority 2020, published 2023)

Tests used:
[1] = Stability of ORZY-04 on drying; type: physicochemical; settings: 168 h of drying at 45° C. in vacuum
Method: A citric acid solution was prepared by charging citric acid (15.01 g, […]) and MeOH (100 mL) in a separate container and stirring for 5 min. at 20° C. The citric acid solution was then charged to the container containing the reaction solution, and the mixture was cooled to 0° C. and stirred for at least 12 h at 0° C. ORZY-04 was then isolated by filtration of the obtained suspension, and washed with MeOH (40 mL). Finally, the solids were dried at 45° C. in vacuum.

[2] = set-up: species or system human; settings: in vivo
Method: The PK parameters of arimoclomol after single dose and multiple dose administrations of arimoclomol were studied. After single- and multiple-dose oral administration of arimoclomol, the overall median tmax was 0.25 to 3.00 hours.

[3] = set-up: species or system dogs; settings: dog, in vivo
[4] = type: in vivo, human
From the text: The stability permits that the permeability of arimoclomol is high based on urinary recovery in human mass balance trial.

[5] = Particle size distribution of ORZY-05 by Malvern Mastersizer 3000; type: physicochemical; settings: ORZY-05 particles, Malvern Mastersizer 3000, volume distribution
Method: Further batches of ORZY-05 were prepared essentially as in Example 7 and the ORZY-05 particles were examined using Malvern Mastersizer 3000 as described in Example 11.
Malvern Mastersizer 3000: Particle size distribution of Arimoclomol citrate (ORZY-05) was determined by light scattering using a Malvern Mastersizer 3000 particle size analyzer (Malvern Instruments Ltd, Grovewood Road, Malvern, Worcestershire WR14 1XZ, United Kingdom) with a Hydro MV wet-dispersion unit attached. 2-Propanol with 1.8 g/L SPAN-85 additive was used as a dispersion medium (“dispersant”) and added to the dispersion unit. Prior to sample addition, the background counts of the system were determined by circulating the dispersant through the measurement cell under measurement conditions (2500 rpm stirrer speed). Samples for analysis were prepared by adding a suitable amount of Arimoclomol citrate to a 10 mL vial and pre-dispersing it with dispersant under light agitation for a few seconds. The pre-dispersed sample was then pipetted into the Hydro MV dispersion unit filled with dispersant to meet a laser obscuration range of 10-15%. A single-use PE pipette was used for this and representative sampling from the 10 mL vial was ensured by continuous agitation. […] Volume distributions were obtained and the D10, D50 and D90 were calculated from these distributions and reported. For each sample, a single sample preparation was analyzed using red light measurement only. Upon measurement completion, the sample cell was emptied and cleaned.

[6] = Particle size distribution of ORZY-05 by static automated imaging (Morphologi 4); type: physicochemical; settings: ORZY-05 particles
Method: The materials and methods were essentially as in Example 7. In the present example, the cooling time of the cooling step of from 30° C. to 0° C. subsequent to addition of acetone was varied and its influence on the particle size of ORZY-05 was determined. The cooling time is a measure of how long it takes to reach 0° C. from 30° C. The particle size distribution (PSD) data shown in Table 3 were acquired using static automated imaging (Morphology 4).
Morphologi 4: The Particle size distribution of Arimoclomol citrate (ORZY-05) was also measured using a Malvern Morphologi 4 equipment.
Wet measurement was used for the needle shaped particles. […] Measurements were made using a thin path wet cell (75*75 mm). Samples were prepared by adding 20 mL of dispersant to 10 mg of API, followed by 30 s of stirring and 2 min of sonication in order to break the agglomerates. A microscope magnifier of X10 or X20 was used, and segmentation sharp edge and/or thresholding was used to improve the focus microscope focus.

Row | Compound | D10 [5] [μm] | D50 [5] [μm] | D90 [5] [μm] | Number CE Diameter D10 [6] [μm] | Number CE Diameter D50 [6] [μm] | Number CE Diameter D90 [6] [μm] | Number CE Diameter Mean [6] [μm] | Number Length D10 [6] [μm] | Number Length D50 [6] [μm] | Number Length D90 [6] [μm] | Volume CE Diameter D10 [6] [μm] | Volume CE Diameter D50 [6] [μm] | Volume CE Diameter D90 [6] [μm] | Volume CE diameter D[3,2] [6] [μm] | Volume CE diameter D[4,3] [6] [μm] | further results
1 | [O-][n+]1cccc(/C(Cl)=N/OC[C@H](O)CN2CCCCC2)c1 [ORZY-04] |  |  |  |  |  |  |  |  |  |  |  |  |  |  |  | stability on drying [1]: stable
2 | [O-][n+]1cccc(C(Cl)=NOC[C@H](O)CN2CCCCC2)c1 [arimoclomol, N-{[(2R)-2-hydroxy-3-piperidin-1-ylpropyl]oxy}pyridine-3-carboximidoyl chloride 1-oxide] |  |  |  |  |  |  |  |  |  |  |  |  |  |  |  | PK parameters (Cmax and AUC0-8) versus dose [2]: increase in proportion to the dose; absorption ([2]; po): rapid and extensive; absolute bioavailability [3]: 75%; drug-related material recovered in faeces ([4]; in vivo): 12%; drug-related material recovered in the urine ([4]; in vivo): 77.5%; permeability ([4]; not told): high
3 | O=C(O)CC(O)(CC(=O)O)C(=O)O.[O-][n+]1cccc(/C(Cl)=N/OC[C@H](O)CN2CCCCC2)c1 [compound 1002, arimoclomol citrate] | 14.00 | 53.00 | 118.00 | 2.45 | 5.61 | 15.01 | 7.71 | 3.46 | 7.37 | 22.17 | 12.39 | 32.12 | 73.60 | 24.24 | 39.38 | 
4 | O=C(O)CC(O)(CC(=O)O)C(=O)O.[O-][n+]1cccc(/C(Cl)=N/OC[C@H](O)CN2CCCCC2)c1 [compound 1003, arimoclomol citrate] | 6.00 | 17.00 | 47.00 | 0.89 | 3.34 | 14.14 | 5.79 | 4.20 | 9.50 | 25.49 | 10.66 | 20.58 | 34.54 | 17.52 | 22.10 | 
5 | O=C(O)CC(O)(CC(=O)O)C(=O)O.[O-][n+]1cccc(/C(Cl)=N/OC[C@H](O)CN2CCCCC2)c1 [compound 1004, arimoclomol citrate] | 8.00 | 22.00 | 68.00 | 1.05 | 2.86 | 13.33 | 5.31 | 2.82 | 6.18 | 24.80 | 12.62 | 25.00 | 43.46 | 20.53 | 27.06 | 
